Measurements as given in US20090030071A1, “Treatment of Cardiovascular Disease in Mexican Americans Using Nebivolol” (priority 2007, published 2009).
Entries after “also recorded” stand apart in the source; their conditions may differ.

Experiments:
[1] = system: human umbilical vein endothelial cells; assay: CaI-stimulated endothelial NO release in HUVECs from MA and NHW donors after 24 h pre-treatment (nanosensor array); format: cell-based; details: for enhancement of NO release: pretreatment 24 hr, 1.0 μM, CaI 1.0 μM stimulus
Protocol: (§1) Endothelial function in cells from normotensive, age-matched Mexican American (MA) and Non-Hispanic White (NHW) donors, as well as the effects of treatment with nebivolol was also determined. Endothelial NO and peroxynitrite (ONOO^−) release was measured simultaneously in human umbilical vein endothelial cells from age-matched MA and NHW donors using a nanosensor array. The effects of nebivolol on NO and ONOO^− production was evaluated following pre-treatment (24 h) using calcium ionophore (CaI) as a receptor-independent stimulus. Levels of eNOS were measured by Western blot analysis. Drug-membrane interactions were determined by small angle x-ray diffraction analysis.

[2] = system: human umbilical vein endothelial cells; assay: CaI-stimulated peroxynitrite (ONOO−) release in HUVECs from MA and NHW donors after 24 h pre-treatment (nanosensor array); format: cell-based; details: for reduction of ONOO− levels: nebivolol pretreatment
Protocol: as §1

[3] = system: arteries isolated from control Wistar-Kyoto (WKY) rats; assay: NO release from arteries isolated from control Wistar-Kyoto (WKY) rats; set-up: species or system rat; details: for amount of NO released: WKY rat arteries, concentration of 10 μM (maximum NO release)
Protocol: In one aspect of the present invention, a composition comprising nebivolol is administered to a person of Hispanic descent, particularly a Mexican American, wherein nebivolol is administered in a mixture containing a greater proportion (enantiomeric excess) of the l-steroisomer of nebivolol. In another embodiment, all or substantially all of the mixture comprises the l-stereoisomer of nebivolol. NO release levels from arteries isolated from control Wistar-Kyoto (WKY) rats following treatment with nebivolol racemate, l-nebivolol or d-nebivolol vary. […] At this concentration, the amount of NO released was 340±30 nM, 284±24 nM, and 180±21 nM for l-nebivolol, nebivolol racemate and d-nebivolol, respectively. These findings confirm that nebivolol can stimulate NO release in the intact artery in a stereoselective manner. See also, Xhonneux R, Wouters L, Reneman R S, et al. The l-enantiomer of nebivolol potentiates the blood pressure lowering effect of the d-enantiomer. Eur. J. Pharmacol. 1990; 181:261-265.

aortic endothelial cells = assay: STZ-induced diabetes: CaI-induced endothelial-dependent NO release from aortic endothelial cells after nebivolol treatment of animals; format: in vivo; details: nebivolol treatment prior to sacrifice at 13 weeks, p=0.1273
Text: FIG. 6 depicts the effects of STZ-induced diabetes on the ratio of CaI-induced NO/ONOO release from aortic endothelial cells in the absence and presence of nebivolol treatment prior to sacrifice of animals at 13 weeks. Values are reported as mean±SD. *p<0.0001 versus control and ^†p<0.001 versus STZ treatment (Student t-test). FIG. 7 depicts the effects of STZ-induced diabetes on CaI-induced endothelial-dependent NO release from aortic endothelial cells in the absence and presence of nebivolol treatment prior to sacrifice of animals at 13 weeks. Values are reported as mean±SD. *p<0.0001 versus control and ^†p<0.001 versus STZ treatment (Student t-test).

eNOS = eNOS levels by Western blot analysis in endothelium; format: cell-based, human; details: MA endothelium, nebivolol treatment
Protocol: as §1

[4] = system: human umbilical vein endothelial cells (HUVECs); assay: Endothelial-dependent NO release from HUVECs of non-Hispanic white and Mexican American donors, measured with electrochemical nanosensors; format: cell-based; details: for increase in NO release (NO bioavailability): 24 h pretreatment with nebivolol at 1.0 μM (FIG. 4)
Protocol: The effects of nebivolol and atenolol on endothelial-dependent NO release were tested in human umbilical vein endothelial cells (HUVECs). Human umbilical vein endothelial cells were isolated into primary cultures from non-Hispanic white and Mexican American female donors by Clonetics (San Diego, Calif.) and purchased as proliferating cells. All cell culture donors were healthy, with no pregnancy or prenatal complications. None of the donors took any drugs regularly and all were nonsmokers and consumed regular caloric/content diet. The identification of race was defined by self-report. The cultured cells were incubated in 95% air/5% CO2 at 37° C. and passage by an enzymatic (trypsin) procedure. […] Before the experiments, the cells (from second or third passage) were rinsed twice with Tyrode-HEPES buffer with 1.8 mmol/L CaCl2. Drugs were obtained from Mylan Laboratories (Morgantown, W. Va.). NO measurement was carried out with electrochemical nanosensors The design was based on previously developed and well-characterized chemically modified carbon-fiber technology ([…], Nature 358, 676-678, 1992; […]. Anal. Chem. 69, 454-462, 1997). Each of the nanosensors was made by depositing a sensing material on the tip of a carbon fiber (length 4-5 μm, diameter 0.2-0.5 μm). The fibers were sealed with nonconductive epoxy and electrically connected to copper wires with conductive silver epoxy. […] The NO nanosensors (diameter 1-2 μm) with a platinum wire (0.1 mm) counter electrode and saturated calomel reference electrode (SCE) were applied. Differential pulse voltammetry (DPV) and amperometry were performed with a computer-based Gamry VFP600 multichannel potentiostat. DPV was used to measure the basal NO concentrations, and amperometry was used to measure changes in NO concentrations from its basal level with time. The DPV current at the peak potential characteristic for NO oxidation (0.65 V) […] was directly proportional to the local concentrations of these compounds in the immediate vicinity of the sensor. Linear calibration curves (current vs. concentration) were constructed for each sensor from 10 nmol/L to 3 μmol/L before and after measurements with aliquots of NO standard solutions, respectively. The detection limit of the sensors was 10^-9 mol/L. The quantification of each analyte (concentration in nmol/L) was performed using a maximum current from amperograms and standard calibration curves. A reproducibility of measurements with nanosensors is relatively high (between 5-12%). […] The sensors were slowly raised 4±1 μm from the surface of a single endothelial cell. The HUVEC preparation is stable over the course of these experiments with the cells remaining viable in culture for >24 hours. Under non-stimulating conditions, basal levels of NO release are very low (<30 nM). […]

`OC(CNCC(O)C1CCc2cc(F)ccc2O1)C1CCc2cc(F)ccc2O1` (racemic) [nebivolol, α, α′-[iminobismethylene]bis[6-fluoro-3,4-dihydro-2H-1-benzopyran-2-methanol]] was tested, and the “enhancement of NO release” value ([1]; MA cells) was 57%, the “increase of ratio of NO to ONOO− (indicator of eNOS coupling)” value ([1]; MA, following nebivolol treatment) was “more than 5 fold” and the “enhancement of NO release” value ([1]; NHW cells) was 20%. For the same compound, the “ONOO− level after treatment” value ([2]; MA endothelium, from 746±12 nM without treatment) was 195 ± 10 nM, the “reduction of ONOO− levels” value ([2]; MA endothelium) was 75% and the “ONOO− level after treatment” value ([2]; NHW endothelium, from 416±7 nM without treatment) was 191 ± 13 nM. For the same compound, the “reduction of ONOO− levels” value ([2]; NHW endothelium) was 50%, the “amount of NO released” value [3] was 284 ± 24 nM and the “CaI-induced endothelial-dependent NO release versus non-diabetic control animals” value (aortic endothelial cells) was “not a statistically significant difference as compared to non-diabetic control animals”. For the same compound, the “increase of eNOS levels” value (eNOS) was “two-fold”, the “increase in NO release (NO bioavailability)” value ([4]; HUVECs from Mexican American donors) was 138 ± 2 nM and the “increase in NO release (NO bioavailability)” value ([4]; HUVECs from white donors) was 68 ± 3 nM. For the same compound, the “increase in NO bioavailability, Mexican American samples relative to white donors” value ([4]; nebivolol at 1.0 μM, 24 h pretreatment) was “two-fold greater”.
`CC(C)NCC(O)COc1ccc(CC(N)=O)cc1` (stereo not drawn) [atenolol] was tested, and the “effects on NO release, ONOO− levels, NO/ONOO− ratio and eNOS levels” value ([1]; MA and NHW HUVECs) was “not observed” and the “stimulation of NO release” value ([4]; either racial group, identical conditions (24 h pre-incubation at 1.0 or 5.0 μM, FIGS. 4 and 5)) was “failed to stimulate any significant amount of NO release; also recorded: did not have any effect”.
`O[C@H](CNC[C@@H](O)[C@H]1CCc2cc(F)ccc2O1)[C@@H]1CCc2cc(F)ccc2O1` [d-nebivolol] was tested, and the “ability to stimulate NO release (order of activity)” value ([3]; WKY arterial vessels) was “weakest stimulant of NO release” and the “amount of NO released” value [3] was 180 ± 21 nM.
With `O[C@@H](CNC[C@H](O)[C@H]1CCc2cc(F)ccc2O1)[C@@H]1CCc2cc(F)ccc2O1` [l-nebivolol] the “amount of NO released” value [3] was 340 ± 30 nM.
